“And” between values parts separate entries of the source, which are not always exact repeats. Equal values may be shown once.

The results in this text go back to US20250179033A1 (priority 2021, published 2025).

In one series the test system is THP-1. The experiment in a line: 99% toxic dose (TD99) in THP-1. The series is classed as cell-based.
The next series concerns Huh-7D12. Put plainly: 99% toxic dose (TD99) in Huh-7D12. It counts as cell-based.
Another series relates to E. coli PQ37. The experiment in a line: Mutagenicity evaluation (SOS-chromotest). The series is classed as cell-based, Escherichia coli. The note with it: 10 mg/mL. The protocol: Mutagenicity evaluation: Escherichia coli PQ37 strain was grown overnight at 37° C., with shaking, in Luria Broth Base supplemented with 50 μg/mL Ampicillin. Bacteria were grown to mid-logarithmic phase and adjusted to an optical density of 0.4.
The second day, Luria Broth Base supplemented with 1.5% Agar was autoclaved for 15 minutes at 121° C. and then put into a water bath at 55° C. for 1 hour.
80 mL of warm agar was transferred into a plastic bottle (Milian, PETG 2019-0125) supplemented with […] ampicillin and 0.005% X-Gal (dissolved into DMF). 4 mL of E. coli PQ37 was added to the mixture and 70 mL of it was transferred into a square petri dish (Grenier Bio-One, Kremsmunster, Austria, 120×120 mm). Petri dish containing the mixture was dried 15 minutes at RT and once the mixture became solid, 6 mm absorbent disks were stuck on the plate.
5 μL of each compound were added on the disk with a pipet sold under the tradename PIPETMAN® P20 (Gilson S.A.S., Villiers-Le-Bel, France) and the petri dish was incubated overnight at 37° C.
The third day, zones of inhibition were recorded with a ruler and a picture of the plate was taken with a scanner (Canon 8800F, Cannon U.S.A., Inc., Melville, New York, United States of America).
Zone of inhibition was calculated by eye using a ruler and presence/absence of blue halo was reporter.

The target of another series is T1, CYP1A2 (Homo sapiens, UniProt P05177).
T1 sequence (P05177 1-516): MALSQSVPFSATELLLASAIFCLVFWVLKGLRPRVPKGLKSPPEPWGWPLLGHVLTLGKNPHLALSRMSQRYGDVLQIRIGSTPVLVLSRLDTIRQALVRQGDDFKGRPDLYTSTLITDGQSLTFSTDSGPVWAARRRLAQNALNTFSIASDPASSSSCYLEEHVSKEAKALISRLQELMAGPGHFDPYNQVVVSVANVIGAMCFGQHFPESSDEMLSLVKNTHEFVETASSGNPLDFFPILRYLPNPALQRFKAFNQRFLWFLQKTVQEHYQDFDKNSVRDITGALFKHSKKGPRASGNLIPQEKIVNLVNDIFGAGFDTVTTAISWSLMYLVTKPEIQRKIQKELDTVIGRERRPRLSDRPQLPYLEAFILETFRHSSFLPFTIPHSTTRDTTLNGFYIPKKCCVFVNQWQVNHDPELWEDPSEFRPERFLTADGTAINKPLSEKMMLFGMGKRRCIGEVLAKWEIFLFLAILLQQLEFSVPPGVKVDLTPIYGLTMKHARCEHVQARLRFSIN
Put plainly: Human CYP inhibition in human liver microsomes. The series is classed as in vitro ADME. To be noted: substrate phenacetin, read-out: CYP inhibition IC50, 1A2. On the procedure:
(§1) Study samples (containing either control inhibitor or test compound) were added into the tubes, vortexed gently and pre-incubated for 5 min at 37° C. 20 μL of NADPH solution was aliquoted into all tubes, then vortexed to start the reaction and to assure adequate mixture of the NADPH. After mixing, the tubes were incubated for 20 min at 37° C. in a shaking water bath and then quenched in […] formic acid/acetonitrile solution. After quenching, the samples were vortexed vigorously for 1 min and centrifuged at 4,000 rpm for 15 min (4° C.). 100 μL of supernatant was transferred to 0.65 ml tubes for LCMS analysis by the bioanalytical method described earlier. The CYP450 substrates and control inhibitors for each enzyme was as follows: CYP1A2 (phenacetin, naphthoflavone), CYP2C9 (diclofenac, sulfaphenazole), CYP2C19 (omeprazole, tranylcypromine), CYP2D6 (dextromethorphan, quinidine), CYP3A4 (midazolam, ketoconazole).

A further series deals with CYP2C9 (Homo sapiens, UniProt P11712). The experiment in a line: Human CYP inhibition in human liver microsomes. To be noted: substrate diclofenac, read-out: CYP inhibition IC50, 2C9. It counts as in vitro ADME. The protocol:
as §1

CYP2C9, sequence (P11712 whole entry): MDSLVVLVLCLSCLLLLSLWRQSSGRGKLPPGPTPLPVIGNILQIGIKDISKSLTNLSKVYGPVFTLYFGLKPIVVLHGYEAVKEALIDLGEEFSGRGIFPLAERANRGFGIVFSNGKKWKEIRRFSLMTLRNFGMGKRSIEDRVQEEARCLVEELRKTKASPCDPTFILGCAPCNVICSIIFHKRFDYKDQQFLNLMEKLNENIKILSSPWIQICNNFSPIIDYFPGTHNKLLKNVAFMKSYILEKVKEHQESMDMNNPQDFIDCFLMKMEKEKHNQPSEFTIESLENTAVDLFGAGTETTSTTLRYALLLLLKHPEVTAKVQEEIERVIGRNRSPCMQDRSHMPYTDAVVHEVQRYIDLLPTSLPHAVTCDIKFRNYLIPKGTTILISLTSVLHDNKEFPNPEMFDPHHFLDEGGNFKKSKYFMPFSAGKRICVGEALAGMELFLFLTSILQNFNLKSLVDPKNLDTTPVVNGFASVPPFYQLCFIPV

As for `Nc1nc(Nc2ccc(Cl)cc2)nn1S(=O)(=O)c1ccc2ccccc2c1` [Compound 1, N3-(4-chlorophenyl)-1-(2-naphthylsulfonyl)-1,2,4-triazole-3,5-diamine], the “99% toxic dose (TD99)” value in the series with THP-1 was > 11 μg/ml and > 27.5 μM; with Huh-7D12 it was > 11 μg/ml and > 27.5 μM. The “Genotoxicity in the SOS-chromotest” value in the series with E. coli PQ37 was “did not appear to be genotoxic”.
For `N#C/C=C/c1ccc2c(S(=O)(=O)n3nc(Nc4ccc(C#N)c(Cl)c4)nc3N)cccc2c1` [Compound 20, 4-[[5-amino-1-[[6-[2-cyanovinyl]-1-naphthyl]sulfonyl]-1,2,4-triazol-3-yl]amino]-2-chloro-benzonitrile], the IC50 is over 50000 nM on CYP1A2 and 1420 nM on CYP2C9.
